Results from patent US4130433A, “Industrial biocides” (Abbott Laboratories, priority 1977, dated 1978).

Tested on: A.niger and P.funiculosum
Test: minimum inhibitory concentration (MIC) test, agar plates, fungal growth
Assay type: cell-based
Conditions: agar inoculated with 10,000 units each of A.niger and P.funiculosum; 30° C., 2 weeks; in µg/mL (unit assumed)
Description: In a minimum inhibitory concentration (MIC) test, the amount of the test compound needed to prevent fungal growth is established. In this test, agar containing the test compound at a specified concentration is inoculated with 1 ml of a broth containing 10,000 units each of A.niger and P.funiculosum. The agar plates inoculated in this fashion are incubated at 30° C. for 2 weeks and growth of the micro-organisms is determined by visual inspection to establish presence or absence of fungal growth. The compounds made according to Example 1 and their MIC data are shown in the following table, wherein X, Y, Y' and Z are as indicated in Structure I.

Row | MIC | SMILES
1 | 100-200 | O=C1C=CC(=O)N1c1ccc(Sc2ccccc2)cc1 [X=H, Y=H, Y'=H, Z=S]
2 | 50-100 | O=C1C=CC(=O)N1c1ccc(Oc2ccc(Cl)cc2Cl)cc1 [X=H, Y=H, Y'=2,4-Cl2, Z=O]
3 | 50-100 | O=C1C=CC(=O)N1c1ccc(Sc2ccc([N+](=O)[O-])cc2)cc1 [X=H, Y=H, Y'=4-NO2, Z=S]
4 | 500-1000 | O=C1C(Cl)=C(Cl)C(=O)N1c1ccc(Sc2ccccc2)cc1 [X=Cl, Y=H, Y'=H, Z=S, N-(p-phenylthiophenyl)-2,3-dichloromaleimide]
5 | 10- 50 | COC(=O)c1cc(Oc2ccc(Cl)cc2Cl)ccc1N1C(=O)C=CC1=O [X=H, Y=2-CO2 Me, Y'=2,4-Cl2, Z=O]
6 | > 2000 | O=C1C(Cl)=C(Cl)C(=O)N1c1ccc(Oc2ccc(Cl)c(Cl)c2)c(Cl)c1 [X=Cl, Y=3-Cl, Y'=3,4-Cl2, Z=O]
7 | 1000-1500 | COC(=O)c1cc(Oc2ccc(Cl)cc2Cl)ccc1N1C(=O)C(Cl)=C(Cl)C1=O [X=Cl, Y=2-CO2 Me, Y'=2,4-Cl2, Z=O]
8 | 1000-1500 | O=C1C(Cl)=C(Cl)C(=O)N1c1ccc(Oc2ccc(Cl)cc2Cl)cc1 [X=Cl, Y=H, Y'=2,4-Cl2, Z=O]
9 | 50-100 | O=C1C(Cl)=C(Cl)C(=O)N1c1ccc(Sc2ccc([N+](=O)[O-])cc2)cc1 [X=Cl, Y=H, Y'=4-NO2, Z=S]
